{"source": "paper PMC8191290", "about": "“Substrate specificities and reaction kinetics of the yeast oligosaccharyltransferase isoforms” (The Journal of Biological Chemistry, 2021)", "key": {"[1]": {"target": "T1, OST3 complex (Saccharomyces cerevisiae, UniProt P39007)", "T1 construct": "were purified separately from strains expressing only one type of complex; made in house; host or cells: Saccharomyces cerevisiae, BY4742-derived strain ost6::LEU2MX6 OST4-1D4::kanMX6 YEp352-OST3", "assay": "In vitro glycosylation assay, kinetic parameters for synthetic LLOs, OST3 complex", "format": "biochemical", "description": "Synthetic LLO substrates all have two GlcNAcs as the sugar moiety, followed by pyrophosphate and lipid moieties (−R) of variable stereochemistry and length, denoted by the carbon chain length. C10, (S)-citronellyl; C15, farnesyl; C20, (S)-citronellylneryl; C25, (S)-citronellylfarnesyl; C90, represents the natural yeast dolichol lipid tail structure where n = 15. Figure modified from Ramirez et al. 2017 ([42]). B, quantification of kinetic parameters for the synthetic LLOs. Reactions were performed with 0.1 μM purified OST3 complex, 25 μM peptide TAMRA-YANATS, and varying concentrations of the different synthetic LLOs. Glycopeptide product was measured by UPLC and turnover rates were determined from the linear initial phase of the reaction. The mean of three reactions is shown and the data were fitted by nonlinear regression according to the Michaelis–Menten formula (R^2 = 0.9842 (LLO C15), 0.9685 (LLO C20), 0.9261 (LLO C25)) using Prism. Error bars indicate standard deviations from the mean (n = 3).\nConcentrations of reactive LLO analogs were determined by in vitro glycosylation (see below) by titrating varying amounts of LLO against a known amount of fluorescently labeled peptide. Concentrations of nonreactive LLO analogs were determined by in vitro glycosylation by titrating varying amounts of nonreactive LLO while using known amounts of both fluorescently labeled peptide and active LLO analog.\nReactions were performed in a total volume of 10 μl containing the specified amount of TAMRA-labeled peptide, synthetic LLO analog, 10 mM MnCl2, and purified OST after size-exclusion chromatography in purification buffer (50 mM Hepes, pH 7.5, 150 mM NaCl, 1 mM MgCl2, 1 mM MnCl2, 10% (v/v) glycerol, 0.03% (w/v) DDM, and 0.006% (w/v) CHS). The concentration of OST was calculated using the molecular weight of 280 kDa. The reaction mixture was preincubated at 30 °C for 5 min before adding the peptide to start the reaction that proceeded at 30 °C. Time points were taken such that the reaction was in the linear phase. […]\n(§1) Samples were analyzed by reverse-phase chromatography using a UPLC Dionex UltiMate 3000 with an Accucore 150-C18 100 × 2.1 mm 2.6 μm column (Thermo Fisher Scientific). One microliter sample (2 pmol of peptide) was injected and measured by isocratic elution using a certain proportion of ACN (15% ACN for peptide TAMRA-DANYTK; 20% ACN for peptide TAMRA-YANATS) in 10 mM KPO4, pH 8.0 buffer so that the glycopeptide and peptide are fully separated and elute within 3 min at a constant flow rate of 0.7 ml/min, with a column temperature of 45 °C. The peptide and glycopeptide were detected through TAMRA fluorescence (excitation wavelength: 546 nm; emission wavelength: 579 nm).\nThe UPLC profiles were analyzed by integrating the peaks corresponding to the glycopeptide and peptide using Chromeleon 7 (Dionex) and calculating the amount of glycopeptide formed using the following equation, as previously described ([43]): [GP]=PeakareaGP/PeakareaP+PeakareaGP×[P]\n[GP] is the concentration of glycopeptide, Peak areaGP/P is the area under the curves measured for the glycopeptide or peptide, respectively, and [P] is the concentration of peptide at the start of the reaction. […] Unless specified otherwise, turnover rates were determined from the initial rates of reaction by taking into account the enzyme concentration in the reaction. […]"}, "[2]": {"target": "T1, OST3 complex", "assay": "Turnover of synthetic TAMRA-labeled peptides", "format": "biochemical", "settings": "for Turnover after 5 min / Glycopeptide detected / Relative turnover: 0.5 µM OST3 complex, 20 µM peptide; for Turnover after 5 min / Relative turnover: 150 µM LLO C20; for Glycopeptide detected: 150 µM LLO C20, 5 min; for Relative turnover: TAMRA-DANYTK turnover defined as 100 %, 5 min", "experimental": "TAMRA-labeled peptides with 5-TAMRA at the N-terminus and an amide group at the C-terminus were synthesized by WatsonBio Sciences. Unlabeled peptides (Table S1) were synthesized by Genscript Corp. and were designed so that the asparagine of the glycosylation sequon was in the middle (except for Peptide 8). Lyophilized peptides were dissolved in dimethyl sulfoxide (DMSO), unless specified otherwise, to a 3 mM stock solution and further diluted in ddH2O for reactions.\nReactions were performed in a total volume of 10 μl containing the specified amount of TAMRA-labeled peptide, synthetic LLO analog, 10 mM MnCl2, and purified OST after size-exclusion chromatography in purification buffer (50 mM Hepes, pH 7.5, 150 mM NaCl, 1 mM MgCl2, 1 mM MnCl2, 10% (v/v) glycerol, 0.03% (w/v) DDM, and 0.006% (w/v) CHS). The concentration of OST was calculated using the molecular weight of 280 kDa. The reaction mixture was preincubated at 30 °C for 5 min before adding the peptide to start the reaction that proceeded at 30 °C. Time points were taken such that the reaction was in the linear phase. At each time point, 1 μl reaction mixture was taken and the reaction was stopped by dilution in stop solution (0.1% FA in 10% ACN, 10 mM KPO4 pH 8.0) such that the final peptide concentration was 2 μM.\nas §1\nThe UPLC profiles were analyzed by integrating the peaks corresponding to the glycopeptide and peptide using Chromeleon 7 (Dionex) and calculating the amount of glycopeptide formed using the following equation, as previously described ([43]): [GP]=PeakareaGP/PeakareaP+PeakareaGP×[P] […]\nSupp. Table 2. Turnover of synthetic TAMRA-labeled peptides\nPeptide Glycopeptide Turnover after 5 min Relative turnover […]\nTAMRA, tetramethylrhodamine\nTurnover of TAMRA-labeled peptides after 5 min was determined using 0.5 µM OST3 complex, 20 µM indicated peptide and 150 µM LLO C20. Relative turnover compared to TAMRA-DANYTK is given by defining TAMRA-DANYTK turnover as 100 %."}}}
{"molecule": "CC(=O)N[C@H]1[C@@H](OP(=O)(O)OP(=O)(O)OC/C=C(\\C)CC/C=C(\\C)CCC=C(C)C)O[C@H](CO)[C@@H](O[C@@H]2O[C@H](CO)[C@@H](O)[C@H](O)[C@H]2NC(C)=O)[C@@H]1O", "note": "[LLO C15]", "values": [{"measurement": "kcat/KM", "setting": "[1]; 0.1 μM purified OST3 complex, 25 μM TAMRA-YANATS", "value": 0.02, "unit": "min^-1 μM^−s1"}, {"measurement": "kcat (apparent)", "setting": "[1]; 0.1 μM purified OST3 complex, 25 μM TAMRA-YANATS, varying LLO (C15 5–200, C20 5–150, C25 2–50 μM), 30 °C, n = 3", "value": "0.0283 ± 0.0017", "unit": "s⁻¹"}, {"measurement": "Km", "setting": "[1]; 0.1 μM purified OST3 complex, 25 μM TAMRA-YANATS, varying LLO (C15 5–200, C20 5–150, C25 2–50 μM), 30 °C, n = 3, read-out: KM (apparent)", "value": "67.9 ± 6.7", "unit": "µM"}, {"measurement": "apparent LLO affinity, in words", "setting": "[1]; OST3 complex, from apparent KM", "value": "bound much less efficiently"}]}
{"molecule": "TAMRA-DANYTK-NH2 [fluorescently labeled hexapeptide TAMRA-DANYTK-NH2 as the acceptor peptide, reference compound]", "values": [{"measurement": "Turnover after 5 min", "setting": "[2]", "value": 6, "unit": "%"}, {"measurement": "Glycopeptide detected", "setting": "[2]", "value": "Yes"}, {"measurement": "Relative turnover", "setting": "[2]", "value": 100, "unit": "%"}]}
{"molecule": "TAMRA-YANATS [shorter version of Peptide 5 of only six amino acid residues (TAMRA-YANATS)]", "values": [{"measurement": "Turnover after 5 min", "setting": "[2]", "value": 84, "unit": "%"}, {"measurement": "Glycopeptide detected", "setting": "[2]", "value": "Yes"}, {"measurement": "times faster glycosylation than TAMRA-DANYTK", "setting": "[2]; OST3 complex, initial turnover, relative to TAMRA-DANYTK", "value": 14, "unit": "times"}, {"measurement": "Relative turnover", "setting": "[2]", "value": 1400, "unit": "%"}]}
